According to publication PMC7248311, “Bisphenol A Diglycidyl Ether (BADGE) and Bisphenol Analogs, but Not Bisphenol A (BPA), Activate the CatSper Ca^2+ Channel in Human Sperm” (Frontiers in Endocrinology, 2020):
Entries after “also recorded” stand apart in the source; their conditions may differ. Where two headings read alike, the source gives them in different places.

What was measured:
[1] = test system: progesterone-induced Ca^2+ signals in human sperm cells; experiment: Inhibition of Ca^2+ signals induced by 100 nM progesterone after 5 min pre-incubation with bisphenols; format: cell-based; conditions: for Dose-dependent inhibition of progesterone-induced Ca^2+ signals (in words): 100 nM progesterone, 5 min pre-incubation; for IC50: Homo sapiens, Sperm, read-out: IC50, μM Mean
Procedure: (§1) Changes in the free intracellular Ca^2+ concentration [Ca^2+]i in human sperm cells were measured in 384 multi-well-plates in a fluorescence plate reader (Fluostar Omega, BMG Labtech, Germany) at 30°C as described in Rehfeld et al. ([41]). Briefly, sperm cells were incubated with the fluorescent Ca^2+ indicator Fluo-4, AM (10 μM) for 45 min at 37°C. […] Fluorescence was recorded before and after addition of 25 μL bisphenol solutions, negative control (buffer with vehicle), positive control (progesterone, 5 μM final concentration) manually with an electronic multichannel pipette to duplicate wells. […] For the inhibition studies mean basal fluorescence (F0) was defined as the last 5 cycles before addition of 100 nM progesterone.
We compared the amplitude of the Ca^2+ signals induced by 100 nM of progesterone in human sperm cells after 5 min of pre-incubation with serially diluted doses of the bisphenols or a negative buffer control.

human sperm cells [2] = experiment: Ca^2+ fluorimetric assay: Ca^2+ signals ([Ca^2+]i) induced in human sperm cells; format: cell-based; conditions: for Induction of Ca^2+ signals in human sperm cells (in words): 10 μM; for EC50 / activation at 10 µM: Homo sapiens, Sperm; for EC50: read-out: EC50, μM Mean; for activation at 10 µM: read-out: Mean relative peak Ca^2+ signal at 10 μM (in %) (n = 3); for EC05, μM Mean: lowest effective dose from dose response of induced Ca^2+ signals
Procedure: as §1
The bisphenols were screened at a concentration of 10 μM, along a positive control (progesterone, 5 μM), and negative control (HTF^+ with vehicle). Changes in [Ca^2+]i were recorded for 4 min after addition of the chemicals and controls. We calculated the relative peak Ca^2+ signal in % induced by the bisphenols, by dividing the peak Ca^2+ signal with that of the paired positive control, in order to compare data from the different experiments.

[3] = test system: voltage-activated Ca^2+ channels; conditions: cited from earlier work
human sperm [4] = test system: human sperm; set-up: method as in doi:10.20883/jms.2016.5; conditions: 0.1 nM−1 μM ref 40; cited from earlier work
human sperm [5] = test system: human sperm; set-up: method as in PMID 27686954; conditions: cited from earlier work
[6] = test system: G protein-coupled estrogen receptor (GPER); set-up: method as in PMID 28858478; conditions: low doses ref 46; cited from earlier work
human sperm cells [7] = conditions: cited from earlier work
[8] = test system: capacitated human sperm cells; experiment: Image cytometry-based acrosome reaction assay; format: cell-based; conditions: 10 μM, 30 min, vs negative control
Procedure: The amount of live acrosome reacted sperm cells was measured using an image cytometry-based acrosome reaction assay, as described in Rehfeld et al. ([41]). Briefly, capacitated sperm cells (10 × 10^6/ml) were divided into equal aliquots and mixed thoroughly with a staining solution containing 5 μg/mL FITC-PSA, 0.5 μg/mL PI, and 10 μg/mL Hoechst in HTF^+. Bisphenols (10 μM) were added to the aliquots of stained capacitated sperm cells together with the positive controls, ionomycin (10 μM), and progesterone (10 μM). As a negative control, HTF^+ with 0.2% DMSO was used. After addition of bisphenols and controls the samples were mixed well and placed on a gentle mixing heating plate at 37°C. After 30 min of incubation, the aliquots were mixed thoroughly by pipetting and a 50 μL sample was drawn and added to a 100 μL aliquot of an immobilizing solution containing 0.6 M NaHCO3 and 0.37% (v/v) formaldehyde in distilled water. This solution was mixed well by pipetting, immediately loaded in an A2 slide (ChemoMetec A/S, Allerød, Denmark) and assessed in a NC-3000 image cytometer (ChemoMetec A/S, Allerød, Denmark). The following protocol was applied: 2-color flexicyte with Hoechst defining the sperm cells to be analyzed; Ex475-Em560/35: exposure time 3,000 ms, Ex530-Em675/75: exposure time 500 ms, with a minimum of 5,000 analyzed cells (positive for Hoechst). […]

human sperm cells [9] = experiment: Sperm penetration into a viscous medium (modified Kremer's test, methylcellulose); format: cell-based; conditions: 10 μM, 60 min, counted at 2 cm, vs negative control
Procedure: Assessment of sperm penetration was done using sperm penetration tests with 4,000 cP methylcellulose (1% w/v) as an artificial viscous medium as described in Alasmari et al. ([43]). The viscous methylcellulose (1% w/v) medium was prepared in HTF^+ by adding 10 mg methylcellulose per mL HTF^+ and mixing it by rotation overnight at RT. The viscous methylcellulose (1% w/v) medium was introduced into glass capillary tubes [borosilicate microslides (VitroTubes) 0.20 mm × 2.0 mm × 10 cm (VitroCom, USA)] by capillary forces, by placing the glass tubes vertically in a 1.5 mL microfuge tube with 750 μL methylcellulose (1% w/v) for 15min. Care was taken to prevent air bubbles from entering the glass tubes. The end of the glass tube that was placed in the microfuge tube was sealed with wax (Hounisens laboratorieudstyr A/S, Denmark). […] The number of sperm cells were counted at 2 cm distance from the opening of the tube, with two fields in each of four planes counted. Throughout the study, all samples were counted by the same observer. Only experiments with a positive increment in cell density at 2 cm for the positive control compared to the negative control and with more than 40 sperm cells counted at 2 cm for the positive control were used for the analysis.

CatSper = experiment: Induced Ca^2+ signals in absence or presence of CatSper inhibitor RU1968; conditions: RU1968 30 μM; bisphenols 5–50 μM, progesterone 5 μM; n = 3
[10] = bisphenol 10 μM, peak Ca^2+ signal divided by that of progesterone 5 μM in the same experiment
[11] = Ca^2+ signals induced by 100 nM progesterone after pre-incubation, n = 3–5
[12] = dose response of induced Ca^2+ signals, n = 3–7

| SMILES | Dose-dependent inhibition of progesterone-induced Ca^2+ signals (in words) [1] | Induction of Ca^2+ signals in human sperm cells (in words) (human sperm cells [2]) | EC05, μM Mean (human sperm cells [2]; n = 3–7) [µM] | activation at 10 µM (human sperm cells [2]; [10]) [%] | Induction of Ca^2+ signals in SKBR3 cells via GPER [6] | EC50 (human sperm cells [2]; [12]) [µM] | other results |
| --- | --- | --- | --- | --- | --- | --- | --- |
| CC(C)(c1ccc(OCC2CO2)cc1)c1ccc(OCC2CO2)cc1 (stereo not shown) [BADGE, Bisphenol A diglycidyl ether] | dose-dependently inhibit | can induce Ca^2+ signals | 1.82 | – | – | – | EC50 (human sperm cells [2]): 8.18 µM; activation at 10 µM (human sperm cells [2]): 14.8% |
| CC(C)(c1ccc(O)cc1)c1ccc(O)cc1 [BPA, Bisphenol A] | – | induced no Ca^2+ signals; also recorded: do not induce Ca^2+ signals | – | 1.44 | induce Ca^2+ signals | – | Activation of other voltage-activated Ca^2+ channels [3]: activate; Inhibition of other voltage-activated Ca^2+ channels [3]: inhibit; Effect on human sperm motility parameters (human sperm [4]): could affect human sperm motility parameters; Dose inducing mitochondrial dysfunction in human sperm (human sperm [5]): ≥ 300 µM; Effect on [Ca^2+]i in single human sperm cells (human sperm cells [7]; 1 μM ref 40): rapid, transient increase; Effect on [Ca^2+]i in human sperm cells (human sperm cells [7]; 0.1, 1, and 10 μM ref 34): did not affect |
| Oc1ccc(C(c2ccc(O)cc2)(C(F)(F)F)C(F)(F)F)cc1 [BPAF, Bisphenol AF] | dose-dependently inhibit | can induce Ca^2+ signals | 0.36 | – | induce Ca^2+ signals | – | IC50 [1]: 12.3 µM; EC50 (human sperm cells [2]): 2.4 µM; activation at 10 µM (human sperm cells [2]): 58%; Live acrosome reacted sperm cells [8]: significant increase; Numbers of human sperm cells penetrating into a viscous medium (human sperm cells [9]): significant increase |
| CCC(C)(c1ccc(O)cc1)c1ccc(O)cc1 [BPB, Bisphenol B] | dose-dependently inhibit | can induce Ca^2+ signals | 2.37 | 11.8 | induce Ca^2+ signals | 14.9 | IC50 [1, 11]: 39.9 µM |
| Oc1ccc(C(c2ccccc2)(c2ccccc2)c2ccc(O)cc2)cc1 [BPBP, Bisphenol BP] | all bisphenols, except BPBP, were able to dose dependently inhibit | can induce Ca^2+ signals | 0.38 | 9.09 | – | 0.79 | – |
| Cc1cc(C(C)(C)c2ccc(O)c(C)c2)ccc1O [BPC, Bisphenol C] | dose-dependently inhibit | can induce Ca^2+ signals | 0.70 | 21.7 | – | 10.3 | IC50 [1, 11]: 45.2 µM |
| CC(c1ccc(O)cc1)c1ccc(O)cc1 [BPE, Bisphenol E] | – | induced no Ca^2+ signals | – | – | – | – | activation at 10 µM (human sperm cells [2]): 5.37% |
| Oc1ccc(Cc2ccc(O)cc2)cc1 [BPF, Bisphenol F] | – | induced no Ca^2+ signals | – | 5.09 | induce Ca^2+ signals | – | – |
| CC(C)c1cc(C(C)(C)c2ccc(O)c(C(C)C)c2)ccc1O [BPG, Bisphenol G] | dose-dependently inhibit | can induce Ca^2+ signals | 0.18 | 109 | – | 1.27 | IC50 [1, 11]: 1.86 µM; Live acrosome reacted sperm cells [8]: significant increase; Numbers of human sperm cells penetrating into a viscous medium (human sperm cells [9]): significant increase |
| O=S(=O)(c1ccc(O)cc1)c1ccc(O)cc1 [BPS, Bisphenol S] | – | induced no Ca^2+ signals | – | 4.41 | induce Ca^2+ signals | – | – |
| CC(=O)[C@H]1CC[C@H]2[C@@H]3CCC4=CC(=O)CC[C@]4(C)[C@H]3CC[C@]12C [progesterone] | – | – | – | – | – | – | Inhibition of the induced Ca^2+ signal in the presence of RU1968 (CatSper): highly inhibited by RU1968 |
